This note sets out measurements from publication PMC10281726 (Journal of Food and Drug Analysis, 2023).

Common to all, as to assay type: biochemical
One test has as its target MINK1 (Homo sapiens, UniProt Q8N4C8). Nature of the test: kinase panel. Conditions: read-out: % inhibition at 3 μM.
A further test deals with MKNK1 (Homo sapiens, UniProt Q9BUB5). Nature of the test: kinase panel. Conditions: read-out: % inhibition at 3 μM.
Test [1] has as its target dual-specific tyrosine phosphorylation-regulated kinase 1A (DYRK1A) (Homo sapiens, UniProt Q13627). Nature of the test: Z'-LYTE FRET-peptide kinase assay, dose response.
The target in a further test is VRK2 (Homo sapiens, UniProt Q86Y07). Nature of the test: kinase panel. Conditions: read-out: % inhibition at 3 μM.
Another test deals with T1, STK3 (Homo sapiens, UniProt Q13188).
T1 sequence (Q13188 1-491): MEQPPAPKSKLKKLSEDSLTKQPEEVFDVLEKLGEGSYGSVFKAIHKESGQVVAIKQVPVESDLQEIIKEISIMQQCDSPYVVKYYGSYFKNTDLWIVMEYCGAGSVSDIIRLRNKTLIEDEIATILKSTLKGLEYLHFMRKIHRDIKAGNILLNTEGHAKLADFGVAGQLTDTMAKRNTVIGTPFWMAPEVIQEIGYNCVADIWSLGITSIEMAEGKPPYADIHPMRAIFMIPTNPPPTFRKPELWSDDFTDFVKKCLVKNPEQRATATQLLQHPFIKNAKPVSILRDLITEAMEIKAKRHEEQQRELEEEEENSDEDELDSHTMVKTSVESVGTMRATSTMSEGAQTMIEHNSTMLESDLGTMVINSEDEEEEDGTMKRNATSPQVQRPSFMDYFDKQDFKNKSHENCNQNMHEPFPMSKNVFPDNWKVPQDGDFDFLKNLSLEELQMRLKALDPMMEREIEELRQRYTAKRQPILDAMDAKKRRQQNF
Nature of the test: kinase panel. The note with it: read-out: % inhibition at 3 μM.

Sequence of MINK1 (Q8N4C8 whole entry): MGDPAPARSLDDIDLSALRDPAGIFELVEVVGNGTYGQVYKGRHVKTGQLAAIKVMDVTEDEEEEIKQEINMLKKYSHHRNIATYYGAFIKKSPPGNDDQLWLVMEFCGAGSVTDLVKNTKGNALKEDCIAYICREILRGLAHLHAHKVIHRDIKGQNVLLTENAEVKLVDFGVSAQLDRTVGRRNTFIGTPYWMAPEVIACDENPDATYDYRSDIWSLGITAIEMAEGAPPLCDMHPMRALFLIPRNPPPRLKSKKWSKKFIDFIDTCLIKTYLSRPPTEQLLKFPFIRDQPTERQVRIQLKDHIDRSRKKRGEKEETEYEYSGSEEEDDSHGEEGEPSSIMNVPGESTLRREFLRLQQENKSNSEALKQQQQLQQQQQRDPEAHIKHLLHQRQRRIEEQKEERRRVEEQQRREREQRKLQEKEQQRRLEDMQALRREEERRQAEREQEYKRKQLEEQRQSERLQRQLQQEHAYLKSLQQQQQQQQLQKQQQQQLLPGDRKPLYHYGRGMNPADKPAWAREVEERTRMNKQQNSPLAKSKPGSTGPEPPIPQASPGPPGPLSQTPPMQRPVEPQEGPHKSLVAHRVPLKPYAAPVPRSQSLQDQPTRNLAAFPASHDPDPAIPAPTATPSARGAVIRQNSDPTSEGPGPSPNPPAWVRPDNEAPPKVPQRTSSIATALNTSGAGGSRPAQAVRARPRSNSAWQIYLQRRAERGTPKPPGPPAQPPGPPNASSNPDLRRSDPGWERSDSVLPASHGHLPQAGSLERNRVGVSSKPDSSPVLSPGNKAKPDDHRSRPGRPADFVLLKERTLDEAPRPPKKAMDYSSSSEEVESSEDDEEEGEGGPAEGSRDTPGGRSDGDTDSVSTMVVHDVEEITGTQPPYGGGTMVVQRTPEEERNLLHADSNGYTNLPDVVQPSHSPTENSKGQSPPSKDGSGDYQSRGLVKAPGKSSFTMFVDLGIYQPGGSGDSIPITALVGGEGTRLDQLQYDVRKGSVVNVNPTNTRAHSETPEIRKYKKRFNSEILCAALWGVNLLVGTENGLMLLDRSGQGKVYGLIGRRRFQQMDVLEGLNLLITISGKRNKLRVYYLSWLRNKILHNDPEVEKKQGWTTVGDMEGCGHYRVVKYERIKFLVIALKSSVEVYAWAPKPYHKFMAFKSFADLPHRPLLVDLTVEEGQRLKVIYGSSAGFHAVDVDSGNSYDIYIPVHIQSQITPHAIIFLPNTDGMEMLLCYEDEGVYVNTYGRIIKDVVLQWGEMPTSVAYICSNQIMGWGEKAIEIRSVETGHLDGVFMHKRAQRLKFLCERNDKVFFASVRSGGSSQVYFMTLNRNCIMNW
Sequence of MKNK1 (Q9BUB5 whole entry): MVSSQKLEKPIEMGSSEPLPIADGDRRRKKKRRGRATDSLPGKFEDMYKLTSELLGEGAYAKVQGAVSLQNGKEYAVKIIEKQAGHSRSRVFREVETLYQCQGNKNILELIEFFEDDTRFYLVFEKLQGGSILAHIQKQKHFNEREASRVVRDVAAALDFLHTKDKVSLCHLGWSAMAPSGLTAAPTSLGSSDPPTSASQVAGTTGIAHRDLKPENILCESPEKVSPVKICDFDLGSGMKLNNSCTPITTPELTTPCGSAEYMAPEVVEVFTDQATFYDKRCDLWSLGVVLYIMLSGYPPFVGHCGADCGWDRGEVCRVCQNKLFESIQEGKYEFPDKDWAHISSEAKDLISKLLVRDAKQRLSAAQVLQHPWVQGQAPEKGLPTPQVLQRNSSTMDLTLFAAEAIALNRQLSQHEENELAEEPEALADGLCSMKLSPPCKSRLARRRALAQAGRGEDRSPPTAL
Sequence of VRK2 (Q86Y07 whole entry): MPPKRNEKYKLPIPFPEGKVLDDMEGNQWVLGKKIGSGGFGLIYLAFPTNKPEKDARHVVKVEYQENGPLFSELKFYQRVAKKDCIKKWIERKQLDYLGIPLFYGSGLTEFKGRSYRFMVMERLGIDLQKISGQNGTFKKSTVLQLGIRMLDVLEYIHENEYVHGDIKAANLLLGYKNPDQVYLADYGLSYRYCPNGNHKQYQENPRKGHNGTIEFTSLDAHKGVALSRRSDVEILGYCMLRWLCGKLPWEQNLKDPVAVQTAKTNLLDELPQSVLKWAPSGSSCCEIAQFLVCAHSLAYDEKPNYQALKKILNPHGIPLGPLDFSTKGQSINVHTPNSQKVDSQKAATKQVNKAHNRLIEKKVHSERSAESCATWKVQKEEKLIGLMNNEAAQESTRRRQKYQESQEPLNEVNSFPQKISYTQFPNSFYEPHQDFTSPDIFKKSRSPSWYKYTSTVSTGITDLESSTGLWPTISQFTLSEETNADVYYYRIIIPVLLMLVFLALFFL

For `O=c1oc2cc(O)ccc2c2ccc(O)cc12` [UA, Urolithin A], the inhibition at 3 µM on MINK1, on MKNK1, at VRK2 and at STK3 was > 50% throughout. In test [1], the IC50 (in general, the midpoint of a concentration-inhibition curve) turned out to be 909 nM.
